Columns and labels:
Type in all cases: physicochemical
[1] = Flowability of amino acid derivative powders in unconfined state (rotating drum, mass flow through a funnel, angle of repose); details: powder, tests without confinement
Experimental: (§1) The flowability of 15 samples of amino acid powders was tested. The flowability of each powder in unconfined state was assessed by powder flow analysis in a rotating drum (“revolution analyzer”), by testing mass flow through a funnel, and by determining the angle of repose. The latter two measurements were performed according to chapter 1174 of the U.S. Pharmacopeia. The flowability of the samples at a confided state was analyzed by measurements with an annular shear cell and by using the Evolution Powder Tester device by PS Prozesstechnik GmbH, Basel. In these tests, the samples were initially densified with different pre-consolidation forces.

[2] = Concentration in saturated dimethyl formamide solution by analytical RP-UHPLC; details: room temperature
Experimental: The concentration of the same amino acids in saturated solutions of dimethyl formamide at room temperature was determined by analytical reversed phase ultrahigh pressure liquid chromatography. The values ranged from below 200 mg/ml for Fmoc-Pro-OH over around 400 mg/ml for Fmoc-Ala-OH to above 600 mg/ml for Fmoc-Gly-OH.

[3] = Flowability of amino acid derivative powders in confined state (annular shear cell, Evolution Powder Tester, pre-consolidation); details: tests with confinement, densified with pre-consolidation forces
Experimental: as §1

flowability [1]	concentration in saturated solution [2]	flowability [3]	SMILES
good flowability	–	–	CSCC[C@H](NC(=O)OCC1c2ccccc2-c2ccccc21)C(=O)O [Fmoc-Met-OH]
poor flowability parameters	below 200 mg/ml	good flowability	O=C(O)[C@@H]1CCCN1C(=O)OCC1c2ccccc2-c2ccccc21 [Fmoc-Pro-OH]
good	above 600 mg/ml	poor flowability	O=C(O)CNC(=O)OCC1c2ccccc2-c2ccccc21 [Fmoc-Gly-OH]
good flowability	–	good flowability	O=C(N[C@@H](CSC(c1ccccc1)(c1ccccc1)c1ccccc1)C(=O)O)OCC1c2ccccc2-c2ccccc21 [Fmoc-Cys(Trt)-OH]
–	–	poor flowability	CC(C)(C)OC(=O)NCCCC[C@H](NC(=O)OCC1c2ccccc2-c2ccccc21)C(=O)O [Fmoc-Lys(Boc)-OH]
poor flowability parameters	around 400 mg/ml	Medium values	C[C@H](NC(=O)OCC1c2ccccc2-c2ccccc21)C(=O)O [Fmoc-Ala-OH]
